Source: publication PMC5008840, “α-Mangostin Extraction from the Native Mangosteen (Garcinia mangostana L.) and the Binding Mechanisms of α-Mangostin to HSA or TRF” (PLoS ONE, 2016)

Tests used:
human transferrin (TRF) = target: T1, human transferrin (TRF) (Homo sapiens, UniProt P02787); assay: intrinsic fluorescence quenching titration; type: binding; details: 298 K; 0.1 M Tris-HCl pH 7.3, 0.1 M NaCl; 10 μM protein; excitation 282 nm; n = 1.09; double-log
T1 construct: gene TF; mature glycoprotein, 679 residues, 19 disulfide bonds, about 77 kD
Excerpt: intrinsic fluorescence quenching titration on human transferrin (TRF)

[1] = target: T2, human serum albumin (HSA) (Homo sapiens, UniProt P02768); assay: intrinsic fluorescence quenching titration; type: binding; details: 298 K; 0.1 M Tris-HCl pH 7.3, 0.1 M NaCl; 10 μM protein; excitation 282 nm; n = 1.15; double-log
T2 construct: gene ALB; mature protein, 585 residues, 17 disulfide bonds, about 67 kD
Excerpt: intrinsic fluorescence quenching titration on human serum albumin (HSA)

T2 sequence (P02768 25-609): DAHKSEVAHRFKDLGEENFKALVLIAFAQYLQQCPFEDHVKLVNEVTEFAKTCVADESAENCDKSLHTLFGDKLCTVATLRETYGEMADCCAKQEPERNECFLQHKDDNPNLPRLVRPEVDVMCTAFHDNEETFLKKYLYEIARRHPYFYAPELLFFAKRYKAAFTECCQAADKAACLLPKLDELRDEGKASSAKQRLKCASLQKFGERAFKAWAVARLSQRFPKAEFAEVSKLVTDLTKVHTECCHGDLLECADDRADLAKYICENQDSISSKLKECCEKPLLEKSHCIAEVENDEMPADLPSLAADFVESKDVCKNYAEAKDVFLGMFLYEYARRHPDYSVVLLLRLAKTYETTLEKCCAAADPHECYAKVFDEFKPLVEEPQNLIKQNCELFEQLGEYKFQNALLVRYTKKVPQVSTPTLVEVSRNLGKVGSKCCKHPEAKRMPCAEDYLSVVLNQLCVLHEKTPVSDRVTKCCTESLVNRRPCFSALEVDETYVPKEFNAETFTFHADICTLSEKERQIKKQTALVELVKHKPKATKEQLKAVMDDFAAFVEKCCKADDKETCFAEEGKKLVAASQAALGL
T1 sequence (P02787 20-698): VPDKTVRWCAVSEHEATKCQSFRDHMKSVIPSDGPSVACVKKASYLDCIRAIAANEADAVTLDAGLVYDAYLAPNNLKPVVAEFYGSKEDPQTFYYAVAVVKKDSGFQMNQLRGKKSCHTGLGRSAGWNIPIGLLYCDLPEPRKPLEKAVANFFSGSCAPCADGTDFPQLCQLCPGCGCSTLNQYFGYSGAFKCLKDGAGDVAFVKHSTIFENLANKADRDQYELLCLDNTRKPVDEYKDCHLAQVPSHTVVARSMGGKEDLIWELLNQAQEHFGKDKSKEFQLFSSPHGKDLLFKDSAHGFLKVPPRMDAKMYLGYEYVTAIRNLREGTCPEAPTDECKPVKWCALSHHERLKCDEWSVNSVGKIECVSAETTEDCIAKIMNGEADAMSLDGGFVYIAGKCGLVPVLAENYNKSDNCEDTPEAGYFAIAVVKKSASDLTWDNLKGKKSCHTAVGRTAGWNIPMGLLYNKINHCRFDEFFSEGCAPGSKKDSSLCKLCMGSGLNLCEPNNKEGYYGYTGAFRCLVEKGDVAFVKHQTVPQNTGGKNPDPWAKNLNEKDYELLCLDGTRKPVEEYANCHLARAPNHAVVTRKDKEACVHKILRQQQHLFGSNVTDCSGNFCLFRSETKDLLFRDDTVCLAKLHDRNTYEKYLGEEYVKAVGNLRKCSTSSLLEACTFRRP

K (human transferrin (TRF)): 146520 L/mol
K [1]: 648320 L/mol
SMILES: COc1c(O)cc2oc3cc(O)c(CC=C(C)C)c(O)c3c(=O)c2c1CC=C(C)C [α-mangostin, 1,3,6-trihydroxy-7-methoxy-2,8-bis(3-methyl-2-butenyl)-9H-xanthen-9-one]
